Where “and” joins values, the source holds several entries; their conditions need not be identical. Equal values may be shown once. Entries after “also recorded” stand apart in the source; their conditions may differ. Read-outs that look alike come from different tables or passages of the source.
Tests used:
WT-TTR = WT-TTR (Homo sapiens (Human), UniProt P02766); test: Isothermal titration calorimetry (ITC) with WT-TTR; conditions: 25° C., pH 7.2, 2% DMSO, model with two ligand-binding sites
Protocol: In an embodiment, Isothermal titration calorimetry (ITC) experiments were conducted to determine the binding constants of bis-furan compounds to TTR. […] An initial injection of 4 μL of titrant was followed by 28 regular injections of 10 μL until saturation of the titrated solution was reached. The heat associated with each injection was measured throughout time and calculated by integration of the area under the deflection of the measured peak, after baseline correction (i.e. subtraction of blank). Further details about the ITC experiments are provided herein.
The corresponding dissociation constants were calculated according to the equation given herein.
In an embodiment, the isothermal titration calorimetry (ITC) experiments were performed on a Malvern high precision VP-ITC titration calorimetry system (Malvern Instruments, Worcestershire, UK; previously from MicroCal). Compound stock solutions were prepared in pure DMSO. Both compound and WT-TTR dilutions were prepared in 20 mM sodium phosphate buffer, 150 mM sodium chloride and 2% DMSO, at pH 7.2. All solutions were filtered and degassed prior to use.
In an embodiment, in all titrations, the initial injection of 4 μL of titrant to the calorimetric cell was followed by 28 injections at regular intervals of 10 μL each, until saturation of the titrated solution was reached. […] The extent of binding was determined by direct measurement of the heat exchanged with the environment: the heat associated with each injection is proportional to the complex concentration and can be calculated by integrating the area under the deflection of the measured calorimetric signal. Data were analyzed with the Origin 7.0 software package from Malvern. A baseline correction was applied to each experiment by subtraction of data from injections of ligand solution into a buffer blank correlating to the heat of dilution of the ligand solution. For the calculation of the association constant (Ka), data analysis was performed according to a model of binding to a macromolecule with two ligand-binding sites, by non-linear regression. The reported dissociation constant (Kd) is the reciprocal of Ka, according to the equation ΔG=−RTInKa=RTInKd, where ΔG is the Gibbs free energy of binding, R is the gas constant and T is the temperature.

[1] = target: wild type TTR in human plasma (Homo sapiens (Human), UniProt P02766); test: Ex vivo TTR stability to dissociation assay (IEF, 4 M urea), plasma of normal subjects; assay type: biochemical; conditions: wild type TTR plasmas, 5 samples, IEF densitometry
Protocol: (§1) In an embodiment, the AT09-B00 compound was further tested ex vivo for its effect on the stability of human plasma TTR, using isoelectric focusing (IEF) under semi-denaturating conditions, i.e. in the presence of 4 M of urea—as described in this disclosure and in references. After plasma incubation with the test and reference compounds, TTR was isolated by PAGE and run on IEF. Bands corresponding to different TTR species were quantified and the tetramer to total protein ratio was determined. Under the experimental conditions used, TTR presented a typical pattern of two main bands, representing monomers (normal and oxidized forms), and several bands of lower isoelectric point (pI) indicating different forms of TTR tetramers.
(§2) In an embodiment, ex vivo TTR stability assays were conducted. Plasma TTR stability to dissociation is assessed by isoelectric focusing (IEF) in semi-denaturing conditions of human plasma samples as described in references. To perform the assay, 30 μL of human plasma are incubated with 5 μL of a 10 mM solution of test compounds and control compounds overnight at 4° C. followed by a 1 hour incubation at room temperature. The samples are then subjected to native PAGE and the gel band containing TTR is excised and applied to an IEF gel. […] The results are expressed as the average ratio of TTR tetramer for over total TTR over 5 repetitions±the standard deviation.

[2] = test system: TTR in human plasma (versus albumin and thyroxine-binding globulin); test: Ex vivo thyroxine ([125I]-T4) competition assay in human plasma (native PAGE); conditions: FIG. 9 A; for displacement of T4 from TTR / binding affinity for TTR (increasing order, in words): heterozygotic TTR V30M carriers and normal subjects, B
Protocol: After electrophoresis, the gels are dried, subjected to phosphor imaging (Typhoon 8600; […], Amersham Biosciences), and analysed using the ImageQuant program version 5.1. The intensity of the protein bands is compared. Two or three bands of different intensity should be visualized in plasma samples.
The results are analyzed by calculation of the TTR/total (TTR+ALB+TBG) ratio for each sample.

[3] = target: recombinant human wild-type TTR (WT-TTR) (Homo sapiens (Human), UniProt P02766); conditions: for IEI (inhibition efficiency index): IEI = (pIC50/MW) × 1000; for ILE (inhibition lipophilic efficiency): ILE = pIC50 − cLogP; for inhibition of amyloid fibril formation by TTR (in words): compounds at 2×, 1× and 0.5× of WT-TTR (3.6 μM), 72 hours, FIG. 5; for pIC50: negative logarithm of IC50 values; for IC50: read-out: IC50 ± S.D. (concentration inhibiting TTR amyloid fibril formation by 50%), WT-TTR 3.6 μM, pH 4.4, 72 hours at 37° C., mean of at least 3 determinations
[4] = test system: HepG2 cells (human liver carcinoma cell line); test: HepG2 cell viability assay (resazurin reduction); assay type: cell-based; conditions: for toxicity for HepG2 cells (in words): 72 hours, even at high doses, FIG. 10; for ID50: HepG2, 72 hours of incubation
Protocol: In an embodiment, the toxicity profiling in HepG2 cell lines was evaluated. […] Further toxicology is required if AT09 compounds are to be progressed to subsequent stages of development, not only to discard potential liver damage (or toxicity to other organs/tissues) but also given the long-term nature of treatments required by patients suffering from TTR amyloidoses (such as FAP), associated co-morbidities, or other TTR-related pathologies.
In an embodiment, the HepG2 cell viability assay was conducted as follows:
Adherent human hepatoma cells HepG2 were cultured in DMEM (Dulbecco's Modified Eagle's Medium) with 10% fetal bovine serum (FBS), 100 U/mL penicillin, 100 μg/mL streptomycin, and 1 mM sodium pyruvate. The cells were grown in 75 cm^2 culture flasks at 37° C., in an atmosphere of 5% CO2, and subcultured twice a week using a trypsin-EDTA solution.
Upon 3-4 days of growth and reaching approximately 90-95% confluence, HepG2 cells were plated in 96-well microplates with cell density of 12×10^3 cells/well and in a volume of 100 μL per well.
In this assay, the compounds were dissolved in pure DMSO and subsequently diluted in DMEM (in 9 intermediate compound concentrations). After adhesion of HepG2 cells to the microplates, 100 μL of each solution of intermediate compound concentration was added to each well (in quadruplicate). Positive controls with 10 wells containing only cells were tested; solvent controls resulted from the analyses of the three highest DMSO concentrations tested and were carried out in triplicate.
After addition of the compounds to the cells, the microplates were incubated for approximately 72 hours at 37° C. in an atmosphere of 5% CO2 until the cell viability assay was performed.
The viability of HepG2 cells in the presence of test compounds was assessed by the resazurin reduction assay. A stock solution of 0.01% resazurin in PBS is diluted 1:10 in incomplete RPMI 1640 cell medium (without addition of antibiotics and FBS). After washing the cells with 200 μL PBS containing Ca^2+ and Mg^2+, 200 μL of 0.001% resazurin were added to the wells. Blanks with incomplete RPMI 1640 medium alone were done in triplicate. The microplates were incubated at 37° C. and 5% CO2 for approximately 2-4 hours.
To quantify the reduction of resazurin, microplate absorbance readings were taken at two wavelengths, 540 nm (reduced form) and 630 nm (oxidized form), in a microplate spectrophotometer (BioTek Instruments, Inc.). The percentage of viable cells at each compound concentration was determined using the equation % viable cells=[(ε630 nm×Abs540 nm)−(ε540 nm×Abs630 nm)]/[(ε630 nm×Ctrl540 nm)−(ε540 nm×Ctrl630 nm)]
where ε is the molar extinction coefficient, Abs is the absorbance and Ctrl is the absorbance of the positive control (cells without compound).

TTR V30M in human plasma = TTR V30M in human plasma (Homo sapiens (Human), UniProt P02766, V30M); test: Ex vivo TTR stability to dissociation assay (IEF, 4 M urea), plasma of heterozygotic V30M carriers; assay type: biochemical; conditions: plasmas of heterozygotic V30M carriers, 5 samples, IEF densitometry
Protocol: as §1, §2

AD/TTR+/− mice = conditions: cited from earlier work
[5] = test system: familial amyloid polyneuropathy (FAP) patients; conditions: 18-month phase-III clinical trial; cited from earlier work

| IEI (inhibition efficiency index) [3] | ILE (inhibition lipophilic efficiency) [3] | pIC50 [3] | IC50 [3] [nM] | Molecule | displacement of T4 from TTR / binding affinity for TTR (increasing order, in words) [2] | inhibition of amyloid fibril formation by TTR (in words) [3] | other results |
| --- | --- | --- | --- | --- | --- | --- | --- |
| 22.6 | 2.77 | 5.69 | 2020 | Cc1c(C(=O)O)coc1/C=C/c1ccc(Cl)o1 [AT09-B00, (E)-5-(2-(5-chlorofuran-2-yl)vinyl)-4-methylfuran-3-carboxylic acid] | iododiflunisal<tafamidis<AT09-B00; also recorded: at least comparable to the current drug | approaching the high levels of activity of 2OH—PCB80 | Kd (WT-TTR; read-out: Kd1): 3.5 nM; Kd (WT-TTR; read-out: Kd2): 357 nM; tetramer to total protein ratio [1]: 0.961; specificity for TTR versus TBG and albumin (in words) ([2]; band intensity): small difference in band intensity for TBG and albumin; toxicity for HepG2 cells (in words) [4]: relatively low toxicity for HepG2 cells; tetramer to total protein ratio (TTR V30M in human plasma): 0.481 |
| 22.3 | 2.99 | 5.60 | 2490 | (E)-5-(2-(5-chlorofuran-2-yl)vinyl)-1-methylfuran-3-carboxylic acid [AT09-B06] |  | stronger inhibition | Kd (WT-TTR; read-out: Kd1): 3.9 nM; Kd (WT-TTR; read-out: Kd2): 278 nM; toxicity for HepG2 cells (in words) [4]: relatively low toxicity for HepG2 cells |
|  |  |  | 7100 | Cc1oc(CSCc2cc(C(=O)O)c(C)o2)cc1C(=O)O [AT09-A00, bis((3-carboxy-2-methyl-furan-5-yl)methyl)sulfane] |  | lower inhibitory activity than tafamidis and thyroxine |  |

The next lines start with the molecule.

| Molecule | IEI (inhibition efficiency index) [3] | ILE (inhibition lipophilic efficiency) [3] | pIC50 [3] | IC50 [3] [nM] | displacement of T4 from TTR / binding affinity for TTR (increasing order, in words) [2] | inhibition of amyloid fibril formation by TTR (in words) [3] | other results |
| --- | --- | --- | --- | --- | --- | --- | --- |
| O=C(O)c1cc(-c2ccc(F)cc2F)cc(I)c1O [iododiflunisal, reference compound] |  |  |  |  | iododiflunisal<tafamidis<AT09-B00 |  | tetramer to total protein ratio [1]: 0.768; brain Abeta levels and deposition, cognitive function (AD/TTR+/− mice): decreased brain Aβ levels and deposition; also recorded: decreased brain Abeta levels and deposition; tetramer to total protein ratio (TTR V30M in human plasma): 0.445 |
| O=C(O)c1ccc2nc(-c3cc(Cl)cc(Cl)c3)oc2c1 [Tafamidis] |  |  |  |  | iododiflunisal<tafamidis<AT09-B00 |  | FAP patients with improvement of symptoms [5]: approximately 60%; ID50 [4]: 76.1 μg/mL and 247 μM; ID50 ([4]; listed as tafamidis): more than 75 μg/mL |
| CNC[C@H](O)[C@@H](O)[C@H](O)[C@H](O)CO.O=C(O)c1ccc2nc(-c3cc(Cl)cc(Cl)c3)oc2c1 [Tafamidis meglumine, N-methyl D-(2,3,4,5,6-pentahydroxy-hexyl)-ammonium; 2-(3,5-dichloro-phenyl)-benzoxazole-6-carboxylate] |  |  |  |  |  |  | FAP patients with improvement of symptoms [5]: approximately 60% |
| Oc1c(Cl)cc(-c2cc(Cl)c(O)c(Cl)c2)cc1Cl [Compound 2OH-PCB80, reference compound] | 18.0 | 0.37 | 5.80 | 1590 |  |  | ID50 [4]: 19.4 μg/mL and 60 μM |
